# Laboratory results: patent US11981658B2, “Substituted aminopyridine compounds as EGFR inhibitors” (YUHAN CORPORATION, priority 2021, dated 2024)
# Like-named read-outs stand apart in the source and are kept apart here.
# Key:
# EGFR Del19/T790M/C797S = EGFR Del19/T790M/C797S (Homo sapiens, UniProt P00533, C797S/DEL746-750/T790M); test: Biochemical EGFR kinase inhibition assay (Lance Ultra TR-FRET), triple mutant del19/T790M/C797S
# Method in brief: (§1)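 In this biochemical assay, phosphorylation after a one-hour room-temperature reaction was detected with europium-labelled anti-phosphopeptide antibody at 2 nM final concentration.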
# EGFR L858R/C797S = EGFR L858R/C797S (Homo sapiens, UniProt P00533, C797S/L858R); test: Biochemical EGFR kinase inhibition assay (Lance Ultra TR-FRET), double mutant L858R/C797S
# Method in brief: as §1
# EGFR wildtype (WT) = EGFR wildtype (WT) (Homo sapiens, UniProt P00533); test: Biochemical EGFR kinase inhibition assay (Lance Ultra TR-FRET), wildtype
# Method in brief: as §1
# EGFR Del19/C797S = EGFR Del19/C797S (Homo sapiens, UniProt P00533, C797S/DEL746-750); test: Biochemical EGFR kinase inhibition assay (Lance Ultra TR-FRET), double mutant del19/C797S
# Method in brief: as §1
# EGFR L858R/T790M/C797S = EGFR L858R/T790M/C797S (Homo sapiens, UniProt P00533, C797S/L858R/T790M); test: Biochemical EGFR kinase inhibition assay (Lance Ultra TR-FRET), triple mutant L858R/T790M/C797S
# Method in brief: as §1
# [1] = ATP at Km, read-out: IC50 Del19/T790M/C797S (nM), Km ATP
# [2] = IC50 Del19/T790M/C797S (nM), 100 μM ATP
# [3] = ATP at Km, read-out: IC50 L858R/C797S (nM), Km ATP
# [4] = IC50 L858R/C797S (nM), 100 μM ATP
# [5] = ATP at Km, read-out: IC50 WT (nM), Km ATP
# [6] = ATP at Km, read-out: IC50 Del19/C797S (nM), Km ATP
# [7] = IC50 Del19/C797S (nM), 100 μM ATP
# [8] = ATP at Km, read-out: IC50 L858R/T790M/C797S (nM), Km ATP
# [9] = IC50 L858R/T790M/C797S (nM), 100 μM ATP
# EGFR Del19/T790M/C797S, sequence (P00533 with tags, fused parts or gaps DEL746-750/T790M/C797S): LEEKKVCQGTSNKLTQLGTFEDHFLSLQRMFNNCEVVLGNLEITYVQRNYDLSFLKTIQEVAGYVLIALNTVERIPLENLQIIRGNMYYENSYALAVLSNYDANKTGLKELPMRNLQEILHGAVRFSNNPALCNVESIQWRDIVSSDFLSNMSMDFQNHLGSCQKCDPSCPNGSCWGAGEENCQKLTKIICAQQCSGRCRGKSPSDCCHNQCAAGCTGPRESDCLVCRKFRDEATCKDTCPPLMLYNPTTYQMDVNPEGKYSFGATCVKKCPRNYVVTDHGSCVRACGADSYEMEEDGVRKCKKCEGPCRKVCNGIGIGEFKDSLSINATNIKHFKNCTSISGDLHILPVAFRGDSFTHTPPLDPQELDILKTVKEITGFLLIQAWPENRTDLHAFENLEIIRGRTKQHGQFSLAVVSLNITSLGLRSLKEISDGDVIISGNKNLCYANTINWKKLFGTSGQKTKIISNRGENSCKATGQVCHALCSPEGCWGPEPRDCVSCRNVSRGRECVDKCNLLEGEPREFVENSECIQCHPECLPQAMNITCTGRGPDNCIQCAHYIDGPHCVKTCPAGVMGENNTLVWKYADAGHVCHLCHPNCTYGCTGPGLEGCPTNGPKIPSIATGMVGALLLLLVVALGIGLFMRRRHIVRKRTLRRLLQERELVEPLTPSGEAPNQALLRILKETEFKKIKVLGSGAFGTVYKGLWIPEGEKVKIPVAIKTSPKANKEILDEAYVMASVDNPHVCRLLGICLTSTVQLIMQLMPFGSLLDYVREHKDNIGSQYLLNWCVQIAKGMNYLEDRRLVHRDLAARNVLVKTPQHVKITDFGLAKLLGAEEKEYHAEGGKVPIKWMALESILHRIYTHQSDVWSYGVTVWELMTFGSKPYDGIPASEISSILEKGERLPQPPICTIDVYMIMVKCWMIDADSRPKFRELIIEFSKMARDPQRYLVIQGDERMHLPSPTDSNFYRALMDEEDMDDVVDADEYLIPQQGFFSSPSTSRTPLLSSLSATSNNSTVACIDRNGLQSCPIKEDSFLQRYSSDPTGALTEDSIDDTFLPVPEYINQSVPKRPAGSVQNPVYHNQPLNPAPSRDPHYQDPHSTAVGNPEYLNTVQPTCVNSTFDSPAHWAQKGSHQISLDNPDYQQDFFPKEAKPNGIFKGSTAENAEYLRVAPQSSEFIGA
# EGFR L858R/T790M/C797S, sequence (P00533 25-1210 T790M/C797S/L858R): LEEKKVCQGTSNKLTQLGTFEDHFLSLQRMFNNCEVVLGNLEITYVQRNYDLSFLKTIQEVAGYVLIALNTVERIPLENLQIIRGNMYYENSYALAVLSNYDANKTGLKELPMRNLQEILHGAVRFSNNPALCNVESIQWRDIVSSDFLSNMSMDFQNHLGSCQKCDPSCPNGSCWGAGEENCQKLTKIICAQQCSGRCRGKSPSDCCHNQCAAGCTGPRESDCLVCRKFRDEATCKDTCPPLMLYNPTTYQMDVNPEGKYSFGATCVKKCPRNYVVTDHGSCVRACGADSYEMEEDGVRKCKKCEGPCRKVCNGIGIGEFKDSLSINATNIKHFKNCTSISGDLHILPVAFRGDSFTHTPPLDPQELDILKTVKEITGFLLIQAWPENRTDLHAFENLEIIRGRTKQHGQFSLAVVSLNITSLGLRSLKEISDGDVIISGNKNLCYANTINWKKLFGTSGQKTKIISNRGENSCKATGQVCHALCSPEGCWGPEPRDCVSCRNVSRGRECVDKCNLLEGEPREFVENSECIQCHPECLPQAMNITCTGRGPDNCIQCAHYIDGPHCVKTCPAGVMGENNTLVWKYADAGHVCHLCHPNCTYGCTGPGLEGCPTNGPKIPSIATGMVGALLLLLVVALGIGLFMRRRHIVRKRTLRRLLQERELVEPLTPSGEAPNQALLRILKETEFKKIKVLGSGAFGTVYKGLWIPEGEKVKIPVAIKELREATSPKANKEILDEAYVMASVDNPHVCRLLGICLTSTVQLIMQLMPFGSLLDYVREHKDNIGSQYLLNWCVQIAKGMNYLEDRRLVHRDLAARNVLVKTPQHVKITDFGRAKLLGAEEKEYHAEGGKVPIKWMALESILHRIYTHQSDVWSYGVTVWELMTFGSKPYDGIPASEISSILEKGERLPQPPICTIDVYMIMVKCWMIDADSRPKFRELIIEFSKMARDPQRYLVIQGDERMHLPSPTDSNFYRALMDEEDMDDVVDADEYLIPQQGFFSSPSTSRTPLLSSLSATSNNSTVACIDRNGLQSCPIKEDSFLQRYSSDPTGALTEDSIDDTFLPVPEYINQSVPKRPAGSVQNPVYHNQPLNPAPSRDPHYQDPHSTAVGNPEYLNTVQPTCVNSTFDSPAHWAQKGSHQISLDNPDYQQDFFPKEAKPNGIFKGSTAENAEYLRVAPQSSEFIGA
# EGFR wildtype (WT), sequence (P00533 25-1210): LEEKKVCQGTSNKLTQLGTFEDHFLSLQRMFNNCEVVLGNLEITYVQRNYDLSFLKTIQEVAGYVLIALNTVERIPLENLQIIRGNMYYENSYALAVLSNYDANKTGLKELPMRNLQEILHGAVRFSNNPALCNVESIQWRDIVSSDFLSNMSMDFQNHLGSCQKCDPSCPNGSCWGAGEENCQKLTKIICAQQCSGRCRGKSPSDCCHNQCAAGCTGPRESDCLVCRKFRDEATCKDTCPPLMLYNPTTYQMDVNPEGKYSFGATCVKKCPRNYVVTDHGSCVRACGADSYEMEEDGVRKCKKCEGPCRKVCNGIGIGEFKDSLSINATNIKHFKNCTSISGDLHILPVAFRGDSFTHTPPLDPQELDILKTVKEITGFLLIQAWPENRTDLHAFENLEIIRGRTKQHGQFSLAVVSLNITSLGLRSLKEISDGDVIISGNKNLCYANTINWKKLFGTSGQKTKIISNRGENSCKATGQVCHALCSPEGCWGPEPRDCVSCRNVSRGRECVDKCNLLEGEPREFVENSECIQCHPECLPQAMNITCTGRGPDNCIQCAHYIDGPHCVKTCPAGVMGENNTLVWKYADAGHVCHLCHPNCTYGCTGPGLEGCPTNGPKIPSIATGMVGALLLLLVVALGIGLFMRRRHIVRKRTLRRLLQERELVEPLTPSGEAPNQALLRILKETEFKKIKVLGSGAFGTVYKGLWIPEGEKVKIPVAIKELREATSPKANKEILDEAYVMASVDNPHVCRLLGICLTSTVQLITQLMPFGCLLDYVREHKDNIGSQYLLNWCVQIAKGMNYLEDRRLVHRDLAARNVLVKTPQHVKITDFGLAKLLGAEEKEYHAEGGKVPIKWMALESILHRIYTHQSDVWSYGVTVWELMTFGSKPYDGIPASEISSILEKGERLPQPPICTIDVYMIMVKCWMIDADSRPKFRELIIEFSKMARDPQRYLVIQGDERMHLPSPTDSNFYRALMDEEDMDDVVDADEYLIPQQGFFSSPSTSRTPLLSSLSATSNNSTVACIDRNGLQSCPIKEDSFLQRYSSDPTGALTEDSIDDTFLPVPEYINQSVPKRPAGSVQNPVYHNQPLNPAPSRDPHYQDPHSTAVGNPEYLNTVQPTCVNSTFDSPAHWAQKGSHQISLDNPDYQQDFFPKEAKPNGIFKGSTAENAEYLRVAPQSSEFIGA
# EGFR L858R/C797S, sequence (P00533 25-1210 C797S/L858R): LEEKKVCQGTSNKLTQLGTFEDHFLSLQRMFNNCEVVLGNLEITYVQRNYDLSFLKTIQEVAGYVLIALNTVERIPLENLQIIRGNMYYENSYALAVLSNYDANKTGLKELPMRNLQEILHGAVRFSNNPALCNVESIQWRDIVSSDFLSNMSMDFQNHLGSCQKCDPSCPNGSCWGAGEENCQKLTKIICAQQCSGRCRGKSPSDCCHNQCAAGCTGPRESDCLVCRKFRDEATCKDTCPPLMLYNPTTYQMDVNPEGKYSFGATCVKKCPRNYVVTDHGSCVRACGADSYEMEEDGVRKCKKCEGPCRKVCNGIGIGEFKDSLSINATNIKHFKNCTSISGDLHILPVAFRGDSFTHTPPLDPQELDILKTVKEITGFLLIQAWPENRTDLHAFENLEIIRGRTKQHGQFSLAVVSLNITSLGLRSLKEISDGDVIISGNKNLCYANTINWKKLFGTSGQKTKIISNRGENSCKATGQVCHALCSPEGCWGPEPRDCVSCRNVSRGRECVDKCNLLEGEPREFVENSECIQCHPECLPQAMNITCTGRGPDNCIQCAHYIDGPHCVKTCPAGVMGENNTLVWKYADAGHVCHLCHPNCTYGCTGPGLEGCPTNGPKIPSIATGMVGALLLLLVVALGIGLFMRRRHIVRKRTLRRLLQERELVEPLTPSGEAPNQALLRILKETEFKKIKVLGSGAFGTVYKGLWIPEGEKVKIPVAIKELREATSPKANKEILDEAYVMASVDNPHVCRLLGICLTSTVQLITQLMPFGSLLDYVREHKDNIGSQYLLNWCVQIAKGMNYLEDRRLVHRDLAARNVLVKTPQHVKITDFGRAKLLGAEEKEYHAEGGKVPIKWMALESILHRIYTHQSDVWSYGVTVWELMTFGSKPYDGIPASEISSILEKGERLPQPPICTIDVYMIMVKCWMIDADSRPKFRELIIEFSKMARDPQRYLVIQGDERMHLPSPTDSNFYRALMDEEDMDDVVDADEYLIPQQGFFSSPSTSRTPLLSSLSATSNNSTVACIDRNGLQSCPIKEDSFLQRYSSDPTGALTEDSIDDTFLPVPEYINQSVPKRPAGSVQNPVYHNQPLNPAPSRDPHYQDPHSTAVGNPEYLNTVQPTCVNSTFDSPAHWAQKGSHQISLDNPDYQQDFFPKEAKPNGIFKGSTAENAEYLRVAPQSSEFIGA
Compound,IC50 (EGFR Del19/T790M/C797S; [1]) [nM],IC50 (EGFR Del19/T790M/C797S; [2]) [nM],IC50 (EGFR L858R/C797S; [3]) [nM],IC50 (EGFR L858R/C797S; [4]) [nM],IC50 (EGFR wildtype (WT); [5]) [nM],"IC50 (EGFR wildtype (WT); IC50 WT (nM), 100 μM ATP) [nM]",IC50 (EGFR Del19/C797S; [6]) [nM],IC50 (EGFR Del19/C797S; [7]) [nM],IC50 (EGFR L858R/T790M/C797S; [8]) [nM],IC50 (EGFR L858R/T790M/C797S; [9]) [nM]
"CC1(O)CCN(c2cc(Nc3ccnc(-c4cnn(S(=O)(=O)C5CC5)c4)n3)ncc2C#Cc2cccnc2)CC1 [Example 280, 1-(2-((2-(1-(Cyclopropylsulfonyl)-1H-pyrazol-4-yl)pyrimidin-4-yl)amino)-5-(pyridin-3-ylethynyl)pyridin-4-yl)-4-methylpiperidin-4-ol]",0.5,0.3,0.6,6.3,3.5,> 10000,0.3,0.5,0.4,0.6
"COC1(C)CCN(c2cc(Nc3ccnc(-c4cnn(S(=O)(=O)C5CC5)c4)n3)ncc2C#Cc2cccnc2)CC1 [Example 281, 2-(1-(Cyclopropylsulfonyl)-1H-pyrazol-4-yl)-N-(4-(4-methoxy-4-methylpiperidin-1-yl)-5-(pyridin-3-ylethynyl)pyridin-2-yl)pyrimidin-4-amine]",10.2,82.1,6.3,287,192,> 10000,17,88.5,–,22
"O=S(=O)(C1CC1)n1cc(-c2nccc(Nc3cc(N4CCC5(CCCO5)CC4)c(C#Cc4cccnc4)cn3)n2)cn1 [Example 282, 2-(1-(Cyclopropylsulfonyl)-1H-pyrazol-4-yl)-N-(5-(pyridin-3-ylethynyl)-4-(1-oxa-8-azaspiro[4.5]decan-8-yl)pyridin-2-yl)pyrimidin-4-amine]",5.5,23.8,4.2,39.2,50.7,> 10000,8.3,28.6,–,7.1
"O=S(=O)(C1CC1)n1cc(-c2nccc(Nc3cc(N4CCC5(CCO5)CC4)c(C#Cc4cccnc4)cn3)n2)cn1 [Example 283, 2-(1-(Cyclopropylsulfonyl)-1H-pyrazol-4-yl)-N-(5-(pyridin-3-ylethynyl)-4-(1-oxa-7-azaspiro[3.5]nonan-7-yl)pyridin-2-yl)pyrimidin-4-amine]",2,9.5,1.9,11.2,16.2,> 10000,3.1,7.9,–,3
"CC(C)(O)CC#Cc1cnc(Nc2ccnc(-c3cnn(S(=O)(=O)C4CC4)c3)n2)cc1N1CCC(C)(CO)CC1 [Example 284, 5-(6-((2-(1-(Cyclopropylsulfonyl)-1H-pyrazol-4-yl)pyrimidin-4-yl)amino)-4-(4-(hydroxymethyl)-4-methylpiperidin-1-yl)pyridin-3-yl)-2-methylpent-4-yn-2-ol]",1.1,4.4,1.7,15.9,12.6,7270,2.8,6.8,–,1.7
"CC1(CO)CCN(c2cc(Nc3ccnc(-c4cnn(S(=O)(=O)C5CC5)c4)n3)ncc2C#CCCN2CCOCC2)CC1 [Example 285, (1-(2-((2-(1-(Cyclopropylsulfonyl)-1H-pyrazol-4-yl)pyrimidin-4-yl)amino)-5-(4-morpholinobut-1-yn-1-yl)pyridin-4-yl)-4-methylpiperidin-4-yl)methanol]",0.8,1,0.1,1.3,2.5,1250,0.4,1.1,0.4,0.6
"CC1(CO)CCN(c2cc(Nc3ccnc(-c4cnn(S(=O)(=O)C5CC5)c4)n3)ncc2C#CCC2(O)COC2)CC1 [Example 286, 3-(3-(6-((2-(1-(Cyclopropylsulfonyl)-1H-pyrazol-4-yl)pyrimidin-4-yl)amino)-4-(4-(hydroxymethyl)-4-methylpiperidin-1-yl)pyridin-3-yl)prop-2-yn-1-yl)oxetan-3-ol]",–,0.1,–,13.5,–,4300,–,2.2,–,0.4
